For 21 compounds, Ki results are on record in patent US7858630B2, “D3 and 5-HT2A receptor modulators” (Hoffmann-La Roche Inc., priority 2008, dated 2010).

The target in test [1] is T1, human serotonin 5-HT2A receptor (Homo sapiens, UniProt P28223).
T1 construct: expressed in transfected cells; host or cells: HEK-293 EBNA cells, transient transfection; membrane preparation
As to the kind of experiment: Radioligand binding ([3H]-ketanserin) to membranes of HEK-293 EBNA cells expressing human 5-HT2A receptor. As to conditions: 1.1 nM [3H]-ketanserin, HEK-293 EBNA membranes, 1 h at RT. The method, boiled down: (§1)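 Membranes from HEK-293 EBNA cells transiently transfected with the receptor were incubated 1 h at RT with ten test concentrations (10 μM–0.1 nM) and ~0.7 nM [3H]-spiperone (D2), 0.5 nM [3H]-spiperone (D3) or 1.1 nM [3H]-ketanserin (5-HT2A). Nonspecific binding was set with 10 μM spiperone, bound radioactivity was read by filtration and scintillation, and Ki was taken from IC50 via Cheng-Prusoff.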

Test [2] concerns the target T2, human dopamine D3 receptor (Homo sapiens, UniProt P35462).
T2 construct: expressed in transfected cells; host or cells: HEK-293 EBNA cells, transient transfection; membrane preparation
Kind of test: Radioligand binding ([3H]-spiperone) to membranes of HEK-293 EBNA cells expressing human D3 receptor. As to conditions: human D3, 0.5 nM [3H]-spiperone, HEK-293 EBNA membranes, 1 h at RT. The method in brief:
as §1

The target in test [3] is T3, human dopamine D2 receptor (Homo sapiens, UniProt P14416).
T3 construct: expressed in transfected cells; host or cells: HEK-293 EBNA cells, transient transfection; membrane preparation
As to the kind of experiment: Radioligand binding ([3H]-spiperone) to membranes of HEK-293 EBNA cells expressing human D2 receptor. The conditions noted are these: human D2, 0.7 nM [3H]-spiperone, HEK-293 EBNA membranes, 1 h at RT. The method, boiled down: as §1

T1 sequence (P28223 whole entry): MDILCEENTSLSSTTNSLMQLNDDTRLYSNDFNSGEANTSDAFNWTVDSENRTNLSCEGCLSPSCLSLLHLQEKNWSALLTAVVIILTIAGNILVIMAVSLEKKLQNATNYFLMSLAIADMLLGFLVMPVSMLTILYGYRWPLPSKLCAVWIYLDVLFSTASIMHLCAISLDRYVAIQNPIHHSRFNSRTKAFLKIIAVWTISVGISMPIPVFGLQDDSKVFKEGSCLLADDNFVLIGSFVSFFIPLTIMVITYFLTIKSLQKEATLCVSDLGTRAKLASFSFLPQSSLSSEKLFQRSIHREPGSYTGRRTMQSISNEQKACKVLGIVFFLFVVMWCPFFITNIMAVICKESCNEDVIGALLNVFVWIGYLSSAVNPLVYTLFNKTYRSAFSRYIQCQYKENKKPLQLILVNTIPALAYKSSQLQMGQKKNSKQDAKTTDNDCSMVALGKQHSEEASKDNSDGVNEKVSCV
T2 sequence (P35462 whole entry): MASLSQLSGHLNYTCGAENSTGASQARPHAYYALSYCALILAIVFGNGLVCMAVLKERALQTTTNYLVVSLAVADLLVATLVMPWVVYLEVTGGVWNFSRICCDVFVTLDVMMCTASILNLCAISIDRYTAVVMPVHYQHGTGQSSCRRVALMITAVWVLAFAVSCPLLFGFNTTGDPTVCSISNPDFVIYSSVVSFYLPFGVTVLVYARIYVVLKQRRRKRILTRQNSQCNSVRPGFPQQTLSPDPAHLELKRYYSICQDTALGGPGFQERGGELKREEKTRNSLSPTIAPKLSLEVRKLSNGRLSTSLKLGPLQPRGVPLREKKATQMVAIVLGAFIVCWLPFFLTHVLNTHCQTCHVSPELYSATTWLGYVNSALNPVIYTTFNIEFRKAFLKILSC
T3 sequence (P14416 whole entry): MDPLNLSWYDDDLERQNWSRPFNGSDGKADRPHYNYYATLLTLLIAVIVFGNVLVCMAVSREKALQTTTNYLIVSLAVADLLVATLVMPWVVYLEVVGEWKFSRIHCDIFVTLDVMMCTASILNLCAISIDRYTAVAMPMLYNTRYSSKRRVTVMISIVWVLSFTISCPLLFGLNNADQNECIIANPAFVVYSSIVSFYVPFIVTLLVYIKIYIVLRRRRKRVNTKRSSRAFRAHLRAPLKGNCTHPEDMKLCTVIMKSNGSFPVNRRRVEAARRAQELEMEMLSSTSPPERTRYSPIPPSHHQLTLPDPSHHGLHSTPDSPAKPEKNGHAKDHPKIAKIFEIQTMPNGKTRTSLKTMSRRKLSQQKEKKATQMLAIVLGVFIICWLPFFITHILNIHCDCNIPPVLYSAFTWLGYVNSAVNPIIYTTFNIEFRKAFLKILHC

With `CO[C@H]1CC[C@H](CC(=O)N[C@H]2CC[C@H](CCN3CCN(c4noc5cc(Cl)ccc45)CC3)CC2)C1` (relative stereo) [Example 36, N-trans-(4-{2-[4-(6-Chloro-benzo[d]isoxazol-3-yl)-piperazin-1-yl]-ethyl}-cyclohexyl)-2-trans-(3-methoxy-cyclopentyl)-acetamide], the figures for the inhibition constant Ki in test [1], in test [2] and in test [3] were 2.74 nM, 10.1 nM and 683 nM, respectively.
As for `COCCC(=O)N[C@H]1CC[C@H](CCN2CCN(c3noc4cc(F)c(C)cc34)CC2)CC1` [Example 108, N-trans-(4-{2-[4-(6-Fluoro-5-methyl-benzo[d]isoxazol-3-yl)-piperazin-1-yl]-ethyl}-cyclohexyl)-3-methoxy-propionamide], the inhibition constant Ki (as a rule, the dissociation constant of the complex between target and ligand, obtained from inhibition or displacement) in test [1] came to 18.9 nM; in test [2], 8 nM; in test [3], 297 nM.
In the case of `CCC(=O)N[C@H]1CC[C@H](CCN2CCN(c3noc4cc(F)c(F)cc34)CC2)CC1` [Example 59, N-trans-(4-{2-[4-(5,6-Difluoro-benzo[d]isoxazol-3-yl)-piperazin-1-yl]-ethyl}-cyclohexyl)-propionamide], the Ki in test [1] was 14.8 nM; in test [2] it was 9.88 nM; in test [3], 389 nM.
On to `CC(=O)N[C@H]1CC[C@H](CCN2CCN(c3noc4cc(Cl)ccc34)CC2)CC1` [Example 30, N-trans-(4-{2-[4-(6-Chloro-benzo[d]isoxazol-3-yl)-piperazin-1-yl]-ethyl}-cyclohexyl)-acetamide], for which the Ki in test [1] amounted to 8.65 nM; in test [2] it was 9.18 nM; in test [3], 675 nM.
For the compound `O=C(CC(F)(F)F)N[C@H]1CC[C@H](CCN2CCN(c3noc4cc(Cl)ccc34)CC2)CC1` [Example 53, N-trans-(4-{2-[4-(6-Chloro-benzo[d]isoxazol-3-yl)-piperazin-1-yl]-ethyl}-cyclohexyl)-3,3,3-trifluoro-propionamide], the values for the Ki in test [1], in test [2] and in test [3] were 5.14 nM, 2.74 nM and 172 nM, respectively.
With `CS(=O)(=O)CCC(=O)N[C@H]1CC[C@H](CCN2CCN(c3noc4cc(F)c(Cl)cc34)CC2)CC1` [Example 90, N-trans-(4-{2-[4-(5-Chloro-6-fluoro-benzo[d]isoxazol-3-yl)-piperazin-1-yl]-ethyl}-cyclohexyl)-3-methanesulfonyl-propionamide], the inhibitory constant (Ki) in test [1] was 7.64 nM; in test [2], 14.3 nM; in test [3], 1190 nM.
For `COC1CCN(CC(=O)N[C@H]2CC[C@H](CCN3CCN(c4noc5ccc(F)cc45)CC3)CC2)CC1` [Example 25, N-trans-(4-{2-[4-(5-Fluoro-benzo[d]isoxazol-3-yl)-piperazin-1-yl]-ethyl}-cyclohexyl)-2-(4-methoxy-piperidin-1-yl)-acetamide], in that order: 13.3 nM, 14.1 nM and 496 nM.
For `COC(CC(=O)N[C@H]1CC[C@H](CCN2CCN(c3noc4ccc(F)cc34)CC2)CC1)OC` [Example 26, N-trans-(4-{2-[4-(5-Fluoro-benzo[d]isoxazol-3-yl)-piperazin-1-yl]-ethyl}-cyclohexyl)-3,3-dimethoxy-propionamide], in that order: 15.9 nM, 2.12 nM and 761 nM.
For `O=C(CC1CCCCO1)N[C@H]1CC[C@H](CCN2CCN(c3noc4cc(Cl)ccc34)CC2)CC1` (stereo partly drawn) [Example 35, N-trans-(4-{2-[4-(6-Chloro-benzo[d]isoxazol-3-yl)-piperazin-1-yl]-ethyl}-cyclohexyl)-2-(tetrahydro-pyran-2-yl)-acetamide], the Ki was found to be 4.8 nM in test [1], 17.2 nM in test [2] and 899 nM in test [3].
Consider `COC1CCC(C(=O)N[C@H]2CC[C@H](CCN3CCN(c4noc5cc(F)c(F)cc45)CC3)CC2)CC1` (stereo partly drawn) [Example 66, 4-Methoxy-cyclohexanecarboxylic acid N-trans(4-{2-[4-(5,6-difluoro-benzo[d]isoxazol-3-yl)-piperazin-1-yl]-ethyl}-cyclohexyl)-amide], for which the Ki in test [1] worked out at 6.94 nM; in test [2] it was 26.3 nM; in test [3], 2930 nM.
Take `COc1ccc(C(=O)N[C@H]2CC[C@H](CCN3CCN(c4noc5cc(F)c(Cl)cc45)CC3)CC2)s1` [Example 85, 5-Methoxy-thiophene-2-carboxylic acid N-trans-(4-{2-[4-(5-chloro-6-fluoro-benzo[d]isoxazol-3-yl)-piperazin-1-yl]-ethyl}-cyclohexyl)-amide]: the inhibition constant (Ki) in test [1] was 7.47 nM; in test [2], 8.2 nM; in test [3], 368 nM.
Regarding `CC(C)(O)CC(=O)N[C@H]1CC[C@H](CCN2CCN(c3noc4cc(Cl)ccc34)CC2)CC1` [Example 44, N-trans-(4-{2-[4-(6-Chloro-benzo[d]isoxazol-3-yl)-piperazin-l-yl]-ethyl}-cyclohexyl)-3-hydroxy-3-methyl-butyramide], the Ki was 6.59 nM in test [1], 10.1 nM in test [2] and 325 nM in test [3].
For `CC1(C)CC(CC(=O)N[C@H]2CC[C@H](CCN3CCN(c4noc5ccc(F)cc45)CC3)CC2)CCO1` (mixture of isomers) [Example 18, Rac-2-(2,2-Dimethyl-tetrahydro-pyran-4-yl)-N-trans-(4-{2-[4-(5-fluoro-benzo[d]isoxazol-3-yl)-piperazin-1-yl]-ethyl}-cyclohexyl)-acetamide], in that order: 25.2 nM, 12.1 nM and 891 nM.
As for `CO[C@H]1CC[C@H](CC(=O)N[C@H]2CC[C@H](CCN3CCN(c4noc5cc(Cl)c(Cl)cc45)CC3)CC2)CC1` [Example 96, N-trans-(4-{2-[4-(5,6-Dichloro-benzo[d]isoxazol-3-yl)-piperazin-1-yl]-ethyl}-cyclohexyl)-2-trans-(4-methoxy-cyclohexyl)-acetamide], the Ki is 51.4 nM in test [1], 35.4 nM in test [2] and 11600 nM in test [3].
Take `O=C(N[C@H]1CC[C@H](CCN2CCN(c3noc4ccc(F)cc34)CC2)CC1)C1CCOCC1` [Example 7, Tetrahydro-pyran-4-carboxylic acid-trans-(4-{2-[4-(5-fluoro-benzo[d]isoxazol-3-yl)-piperazin-1-yl]-ethyl}-cyclohexyl)-amide]: the Ki was 13.8 nM in test [1], 11.6 nM in test [2] and 654 nM in test [3].
For `O=C(N[C@H]1CC[C@H](CCN2CCN(c3noc4cc(F)c(Cl)cc34)CC2)CC1)C1CCC1` [Example 92, Cyclobutanecarboxylic acid N-trans-(4-{2-[4-(5-chloro-6-fluoro-benzo[d]isoxazol-3-yl)-piperazin-1-yl]-ethyl}-cyclohexyl)-amide], the inhibitory constant (Ki) in test [1] amounted to 11.6 nM; in test [2] it was 12.4 nM; in test [3] it was 4070 nM.
For the compound `O=C(N[C@H]1CC[C@H](CCN2CCN(c3noc4cc(F)c(Cl)cc34)CC2)CC1)c1ccc(Cl)s1` [Example 84, 5-Chloro-thiophene-2-carboxylic acid N-trans-(4-{2-[4-(5-chloro-6-fluoro-benzo[d]isoxazol-3-yl)-piperazin-1-yl]-ethyl}-cyclohexyl)-amide], the inhibition constant Ki is 7.11 nM in test [1], 2.94 nM in test [2] and 258 nM in test [3].
Regarding `CC1(C)C[C@@H](CC(=O)N[C@H]2CC[C@H](CCN3CCN(c4noc5ccc(F)cc45)CC3)CC2)CCO1` [Example 22, 2-((S)-2,2-Dimethyl-tetrahydro-pyran-4-yl)-N-(4-{2-[4-(5-fluoro-benzo[d]isoxazol-3-yl)-piperazin-1-yl]-ethyl}-cyclohexyl)-acetamide], the inhibition constant Ki in test [1] was found to be 32.7 nM; in test [2], 7.81 nM; in test [3], 1030 nM.
Regarding `COCCC(=O)N[C@H]1CC[C@H](CCN2CCN(c3noc4cc(Cl)c(F)cc34)CC2)CC1` [Example 71, N-trans-(4-{2-[4-(6-Chloro-5-fluoro-benzo[d]isoxazol-3-yl)-piperazin-1-yl]-ethyl}-cyclohexyl)-3-methoxy-propionamide], the inhibition constant Ki came to 89.2 nM in test [1], 20.1 nM in test [2] and 1430 nM in test [3].
For the compound `COCCC(=O)N[C@H]1CC[C@H](CCN2CCN(c3noc4cc(F)c(Cl)cc34)CC2)CC1` [Example 74, N-trans-(4-{2-[4-(5-Chloro-6-fluoro-benzo[d]isoxazol-3-yl)-piperazin-1-yl]-ethyl}-cyclohexyl)-3-methoxy-propionamide], the Ki in test [1] was 12.2 nM; in test [2], 10.1 nM; in test [3], 260 nM.
On to `CC1(CC(=O)N[C@H]2CC[C@H](CCN3CCN(c4noc5ccc(F)cc45)CC3)CC2)COC1` [Example 21, N-trans-(4-{2-[4-(5-Fluoro-benzo[d]isoxazol-3-yl)-piperazin-1-yl]-ethyl}-cyclohexyl)-2-(3-methyl-oxetan-3-yl)-acetamide], for which the Ki in test [1] came out at 11.1 nM; in test [2] it was 2.61 nM; in test [3], 307 nM.
